Among the test systems are TK-10 renal; SK-MEL-5 melanoma; NCI-H23 lung; UACC-257 melanoma; A498 renal; UACC-62 melanoma; SF-539 CNS; EKVX NSCLC; MALME-3M melanoma; MOLT-4 leukemia.
Common to all, as to test: NCI tumour cell line growth inhibition, 48 h

Where “and” joins values, the source holds several entries; their conditions need not be identical. Equal entries are not always repeated.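 Dose response: 5 concentrations. Exposure: 48 h. Format: 96-well plates. Endpoint: linear interpolation; highest concentration if not reached. The concentration for 50% growth inhibition is given as GI50. Definition used: TGI = concentration required for complete inhibition of growth.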

Turning to `O=c1[nH]c(=O)n(C2OC(CO)C(O)C2O)cc1F` (stereo not drawn), the TGI in the test with TK-10 renal was greater than 62.2 µM; in the test on SK-MEL-5 melanoma it was 38.4 µM; in the test on NCI-H23 lung, greater than 43.9 µM; in the test with UACC-257 melanoma, 53.4 µM; in the test with A498 renal, 5.61 µM; with UACC-62 melanoma, 7.56 µM. Also, the TGI with SF-539 CNS is 3.03 µM; in the test with EKVX NSCLC, greater than 93.8 µM; in the test with MALME-3M melanoma, 47.5 µM; in the test on MOLT-4 leukemia, greater than 100 µM. Also, the GI50 with UACC-257 melanoma was 1.33 µM; in the test with A498 renal, 0.0876 µM; in the test on UACC-62 melanoma it was 0.0515 µM; in the test on MOLT-4 leukemia, 0.0428 µM.

For the compound `CCC(=C(c1ccc(OCCN2CCCC2)cc1)c1ccc(OCCN2CCCC2)cc1)c1ccc(Cl)cc1`, the GI50 in the test with TK-10 renal is 0.628 µM; with SK-MEL-5 melanoma, 0.6 µM; with NCI-H23 lung, 0.667 µM; in the test with UACC-257 melanoma it was 0.595 µM; in the test on A498 renal it was 1.28 µM; in the test with UACC-62 melanoma, 0.61 µM. Also, the GI50 in the test on SF-539 CNS was 0.558 µM; in the test with EKVX NSCLC, 0.666 µM; in the test with MALME-3M melanoma, 0.564 µM; in the test on MOLT-4 leukemia, 0.592 µM. Besides, the TGI was found to be 1.33 µM with TK-10 renal; 1.07 µM in the test on SK-MEL-5 melanoma; 1.38 µM with NCI-H23 lung; 1.18 µM in the test on UACC-257 melanoma; 2.82 µM with A498 renal; 1.16 µM in the test on UACC-62 melanoma. Besides, the TGI with SF-539 CNS was 1.05 µM; in the test on EKVX NSCLC, 1.4 µM; with MALME-3M melanoma, 1.07 µM; in the test on MOLT-4 leukemia it was 1.32 µM.

In the case of `COc1ccc2c(c1)C(=O)c1c-2n(CCCCl)c(=O)c2cc(N)ccc12`, the GI50 in the test on TK-10 renal is greater than 82.5 µM; in the test with SK-MEL-5 melanoma, 51 µM; in the test with NCI-H23 lung, greater than 100 µM; in the test with UACC-257 melanoma, greater than 100 µM; in the test on A498 renal, greater than 100 µM; in the test with UACC-62 melanoma, greater than 100 µM. Besides, the GI50 in the test with SF-539 CNS was greater than 100 µM; in the test on EKVX NSCLC, greater than 100 µM; with MALME-3M melanoma, greater than 100 µM; with MOLT-4 leukemia, greater than 54.6 µM. Besides, the TGI in the test with TK-10 renal, with SK-MEL-5 melanoma, in the test with NCI-H23 lung, in the test on UACC-257 melanoma, in the test with A498 renal and with UACC-62 melanoma was greater than 100 µM throughout. Further, the TGI in the test on SF-539 CNS, in the test on EKVX NSCLC, in the test on MALME-3M melanoma and in the test with MOLT-4 leukemia was greater than 100 µM in each case.

On to `CC1(C)CC[C@]2(CO)CC[C@]3(C)C(=CC[C@@H]4[C@@]5(C)CCNCC(C)(C)[C@@H]5CC[C@]43C)[C@@H]2C1`, for which the GI50 was 10.3 µM with TK-10 renal; 1.86 µM in the test on SK-MEL-5 melanoma; 12.5 µM in the test on NCI-H23 lung; 2.33 µM in the test on UACC-257 melanoma; 12.5 µM with A498 renal; 2.77 µM in the test on UACC-62 melanoma. Moreover, the GI50 was 10.6 µM in the test on SF-539 CNS, 9.55 µM in the test on EKVX NSCLC, 1.69 µM in the test on MALME-3M melanoma and 4.41 µM in the test with MOLT-4 leukemia. Also, the TGI in the test with TK-10 renal was 22.6 µM; in the test with SK-MEL-5 melanoma it was 3.64 µM; with NCI-H23 lung, 26.9 µM; in the test on UACC-257 melanoma, 5.79 µM; in the test on A498 renal, 25.1 µM; in the test with UACC-62 melanoma, 8.14 µM. Also, the TGI in the test on SF-539 CNS was determined as 23.1 µM; with EKVX NSCLC it was 23.2 µM; in the test with MALME-3M melanoma it was 3.71 µM; in the test on MOLT-4 leukemia, 18.7 µM.

For the compound `NC(Cc1c[nH]c2cccc(F)c12)C(=O)O` (stereo not drawn), the GI50 in the test on TK-10 renal was 1220 µM; in the test on SK-MEL-5 melanoma, 20.1 µM and 154 µM; in the test with UACC-257 melanoma, 1380 µM; in the test with A498 renal it was 1150 µM; in the test on UACC-62 melanoma, 582 µM; in the test with SF-539 CNS it was 381 µM. For the same compound, the GI50 in the test on EKVX NSCLC was 778 µM; in the test on MALME-3M melanoma, 2600 µM; with MOLT-4 leukemia, 41.7 µM and 338 µM. For the same compound, the TGI in the test with TK-10 renal is greater than 4500 µM; in the test on SK-MEL-5 melanoma, 54.7 µM and 458 µM; in the test with NCI-H23 lung it was 3180 µM; in the test on UACC-257 melanoma it was greater than 4500 µM; with A498 renal it was 3670 µM; in the test with UACC-62 melanoma, 1990 µM. The TGI is 3040 µM in the test with SF-539 CNS, greater than 4500 µM in the test with EKVX NSCLC, greater than 4500 µM in the test on MALME-3M melanoma and greater than 4500 µM in the test on MOLT-4 leukemia.

Regarding `OCC1OC(n2cnc3c(NCc4ccco4)ncnc32)C(O)C1O` (stereo not drawn), the GI50 with TK-10 renal is 3.18 µM; in the test with SK-MEL-5 melanoma, 9.36 µM; in the test with NCI-H23 lung it was 2.87 µM; in the test with UACC-257 melanoma, 52.5 µM; with A498 renal it was 1.59 µM; in the test on UACC-62 melanoma, 3.34 µM. The GI50 in the test with SF-539 CNS is 3.07 µM; in the test with EKVX NSCLC it was 4.73 µM; in the test with MALME-3M melanoma, 5.91 µM; in the test on MOLT-4 leukemia, 0.585 µM. Further, the TGI in the test with TK-10 renal was greater than 63.7 µM; in the test on SK-MEL-5 melanoma, greater than 74.1 µM; with NCI-H23 lung, 31.8 µM; in the test with UACC-257 melanoma, greater than 100 µM; in the test on A498 renal it was 5.5 µM; in the test with UACC-62 melanoma, 29.7 µM. Further, the TGI in the test on SF-539 CNS was found to be 13.6 µM; with EKVX NSCLC, 81.7 µM; with MALME-3M melanoma, 48.1 µM; in the test on MOLT-4 leukemia, 6.25 µM.

Take `C[C@@H](Oc1cc(-c2cnn(C3CCNCC3)c2)cnc1N)c1c(Cl)cc(F)cc1Cl`: the GI50 was 3.6 µM with TK-10 renal; 1.51 µM with SK-MEL-5 melanoma; 1.93 µM in the test with NCI-H23 lung; 1.49 µM in the test with UACC-257 melanoma; 1.3 µM in the test on A498 renal; 1.61 µM in the test on UACC-62 melanoma. Besides, the GI50 was 1.67 µM in the test on SF-539 CNS, 3.72 µM in the test with EKVX NSCLC, 1.27 µM in the test with MALME-3M melanoma and 0.866 µM in the test on MOLT-4 leukemia. In addition, the TGI in the test with TK-10 renal is 11.6 µM; with SK-MEL-5 melanoma it was 2.89 µM; with NCI-H23 lung, 14.8 µM; in the test on UACC-257 melanoma, 3.07 µM; with A498 renal, 3.82 µM; with UACC-62 melanoma, 3.65 µM. Further, the TGI in the test with SF-539 CNS is 3.3 µM; with EKVX NSCLC, 17.3 µM; in the test on MALME-3M melanoma, 2.94 µM; in the test on MOLT-4 leukemia, 7.71 µM.

The record behind these values is PubChem BioAssay (NCI).
